# Legend:
# [1] = system: H460-VINC; assay: Cytotoxicity on H460-VINC cells (Table 1; method not given); assay type: cell-based; details: H460-VINC of Table 1; unit inferred
# [2] = system: HeLaS3 cells; assay: Measurement of cytotoxicity on cultivated human tumour cells (AlamarBlue); assay type: cell-based; details: HeLa in Table 1; unit inferred
# Protocol: The activity of the compounds according to the invention was determined in the cytotoxicity test on cultivated human tumour cells and/or in a FACS analysis, for example on HeLaS3 cells.
# Measurement of Cytotoxicity on Cultivated Human Tumour Cells
# To measure the cytotoxicity on cultivated human tumour cells, cells of the cervical cancer tumour cell line HeLaS3 (obtained from American Type Culture Collection (ATCC)) in Ham's F12 Medium (Life Technologies) and 10% foetal calf serum (Life Technologies) were cultivated and harvested in the logarithmic growth phase. Then the HeLaS3 cells were placed in 96-well plates (Costar) at a density of 1000 cells per well and incubated overnight in an incubator (at 37° C. and 5% CO2), while on each plate 6 wells were filled only with medium (3 wells as a control of the medium, 3 wells for incubation with reduced AlamarBlue). The active substances were added to the cells in various concentrations (dissolved in DMSO; final concentration: 1%) (in each case as a triple measurement). After 72 hours' incubation, 20 μl of AlamarBlue (AccuMed International) were added to each well, and the cells were incubated for a further 7 hours. As a control, 20 μl of reduced Alamar Blue (AlamarBlue reagent which had been autoclaved for 30 min) were added to 3 wells. After 7 h incubation the colour change of the AlamarBlue reagent in the individual wells was determined in a Perkin Elmer fluorescence spectrophotometer (excitation 530 nm, emission 590 nm, slits 15, integrate time 0.1). The amount of AlamarBlue reagent reacted represents the metabolic activity of the cells. The relative cell activity was calculated as a percentage of the control (HeLa S3 cells without inhibitor) and the active substance concentration which inhibits the cell activity by 50% (IC^50) was obtained. The values were calculated from the average of three individual measurements, correcting for the control value (medium control).
Compound,IC50 [1],IC50 [2]
CCC1C(=O)N(C)c2cnc(Nc3ccc(C(=O)NC4CCCN(C)CC4)cc3OC)nc2N1CCC(C)C (mixture of isomers) [Example 172],772 nM,20 nM
COc1cc(C(=O)NC2CC(C)(C)N(C)C(C)(C)C2)ccc1Nc1ncc2c(n1)N(CCC(C)C)C(C)C(=O)N2C (centres unmarked) [Example 1],604 nM,46 nM
COc1cc(C(=O)NC2CCN(C(C)C)CC2)ccc1Nc1ncc2c(n1)N(CCC(C)C)C(C)C(=O)N2C (centres unmarked) [Example 2],971 nM,56 nM
CC(C)CCN1c2nc(Nc3ccc(C(=O)NC4CC(C)(C)N(C)C(C)(C)C4)cc3)ncc2N(C)C(=O)C1C (centres unmarked) [Example 3],,61 nM
CCN1CCC(NC(=O)c2ccc(Nc3ncc4c(n3)N(CCC(C)C)C(C)C(=O)N4C)cc2)CC1 (centres unmarked) [Example 4],,98 nM
COc1cc(C(=O)NC2CC(C)(C)N(C)C(C)(C)C2)ccc1Nc1ncc2c(n1)N(CC(C)(C)C)C(C)C(=O)N2C (centres unmarked) [Example 5],863 nM,52 nM
CCN1CCC(NC(=O)c2ccc(Nc3ncc4c(n3)N(CC(C)(C)C)C(C)C(=O)N4C)c(OC)c2)CC1 (centres unmarked) [Example 6],822 nM,53 nM
COc1cc(C(=O)NC2CCN(C(C)C)CC2)ccc1Nc1ncc2c(n1)N(CC(C)(C)C)C(C)C(=O)N2C (centres unmarked) [Example 7],865 nM,84 nM
CC1C(=O)N(C)c2cnc(Nc3ccc(C(=O)NC4CC(C)(C)N(C)C(C)(C)C4)cc3)nc2N1CC(C)(C)C (centres unmarked) [Example 8],,63 nM
COc1cc(C(=O)NC2CCC(N3CCOCC3)CC2)ccc1Nc1ncc2c(n1)N(CCC(C)C)C(C)C(=O)N2C (centres unmarked) [Example 9],207 nM,57 nM
CC1C(=O)N(C)c2cnc(Nc3ccc(C(=O)NC4CCN(Cc5ccccc5)CC4)cc3)nc2N1CC(C)(C)C (centres unmarked) [Example 10],,91 nM
CCN1CCC(NC(=O)c2ccc(Nc3ncc4c(n3)N(CC(C)(C)C)C(C)C(=O)N4C)cc2)CC1 (centres unmarked) [Example 11],1300 nM,86 nM
CC(C)N1CCC(NC(=O)c2ccc(Nc3ncc4c(n3)N(CC(C)(C)C)C(C)C(=O)N4C)cc2)CC1 (centres unmarked) [Example 12],1070 nM,99 nM
COc1cc(C(=O)NC2CCC(N(C)C)CC2)ccc1Nc1ncc2c(n1)N(C1CCCC1)C(C)C(=O)N2C (centres unmarked) [Example 13],1320 nM,26 nM
CC1C(=O)N(C)c2cnc(Nc3ccc(C(=O)NC4CCC(N(C)C)CC4)cc3)nc2N1C1CCCC1 (centres unmarked) [Example 14],≥ 3000 nM,55 nM
COc1cc(C(=O)NC2CCC(N3CCCC3)CC2)ccc1Nc1ncc2c(n1)N(C1CCCC1)C(C)C(=O)N2C (centres unmarked) [Example 15],,20 nM
COc1cc(C(=O)NC2CCC(N3CCCCC3)CC2)ccc1Nc1ncc2c(n1)N(C1CCCC1)C(C)C(=O)N2C (centres unmarked) [Example 16],483 nM,17 nM
CCN1CCC(NC(=O)c2ccc(Nc3ncc4c(n3)N(C3CCCC3)C(C)C(=O)N4C)c(OC)c2)CC1 (centres unmarked) [Example 17],730 nM,24 nM
CCN1CCC(NC(=O)c2ccc(Nc3ncc4c(n3)N(C3CCCC3)C(C)C(=O)N4C)cc2)CC1 (centres unmarked) [Example 18],1760 nM,40 nM
CCC1C(=O)N(C)c2cnc(Nc3ccc(C(=O)NC4CCC(N5CCCC5)CC4)cc3OC)nc2N1C1CCCC1 (centres unmarked) [Example 19],747 nM,13 nM
COc1cc(C(=O)NC2CCC(N3CCCCC3)CC2)ccc1Nc1ncc2c(n1)N(C1CCCC1)C(C)C(=O)N2C (centres unmarked) [Example 25],,38 nM
COc1cc(C(=O)N[C@H]2CC[C@H](N3CCCCC3)CC2)ccc1Nc1ncc2c(n1)N(CCC(C)C)[C@H](C)C(=O)N2C [Example 29],,49 nM
COc1cc(C(=O)NC2CCC(N3CCCC3)CC2)ccc1Nc1ncc2c(n1)N(CCC(C)C)[C@H](C)C(=O)N2C (some centres unmarked) [Example 34],,55 nM
COc1cc(C(=O)N[C@H]2CC[C@H](N3CCCC3)CC2)ccc1Nc1ncc2c(n1)N(CCC(C)C)[C@H](C)C(=O)N2C [Example 35],,88 nM
COc1cc(C(=O)NC2CCC(N3CCCC3)CC2)ccc1Nc1ncc2c(n1)N(C1CCCC1)[C@H](C)C(=O)N2C (some centres unmarked) [Example 36],,21 nM
CCN1CC[C@@H](NC(=O)c2ccc(Nc3ncc4c(n3)N(CCC(C)C)[C@H](C)C(=O)N4C)cc2)C1 [Example 39],,75 nM
CCC1C(=O)N(C)c2cnc(Nc3ccc(C(=O)NC4CC5CCC(C4)N5C)cc3)nc2N1C1CCCC1 (centres unmarked) [Example 47],,28 nM

Compound,IC50 [1],IC50 [2]
CCN(CC)CCNC(=O)c1ccc(Nc2ncc3c(n2)N(c2ccccc2)C(C)C(=O)N3C)c(OC)c1 (centres unmarked) [Example 59],,95 nM
CC1C(=O)N(C)c2cnc(Nc3ccc(C(=O)NCCN4CCCCC4)cc3)nc2N1C1CCCC1 (centres unmarked) [Example 70],,92 nM
CC[C@@H]1C(=O)N(C)c2cnc(Nc3ccc(C(=O)NCCN4CCCCC4)cc3OC)nc2N1C(C)C [Example 72],,50 nM
CC[C@@H]1C(=O)N(C)c2cnc(Nc3ccc(C(=O)NCCN(CC)CC)cc3)nc2N1C(C)C [Example 73],,91 nM
CC[C@@H]1C(=O)N(C)c2cnc(Nc3ccc(C(=O)NCCN(CC)CC)cc3OC)nc2N1C(C)C [Example 74],,43 nM
CCN(CC)CCCNC(=O)c1ccc(Nc2ncc3c(n2)N(C2CCCC2)[C@H](C)C(=O)N3C)c(OC)c1 [Example 76],,68 nM
C[C@@H]1C(=O)N(C)c2cnc(Nc3ccc(C(=O)NC4CCN(C)CC4)cc3)nc2N1C1CCCC1 [Example 79],,43 nM
C[C@@H]1C(=O)N(C)c2cnc(Nc3ccc(C(=O)NC4CC5CCC(C4)N5C)cc3)nc2N1C1CCCCC1 (some centres unmarked) [Example 92],,43 nM
CN1CCC(NC(=O)c2ccc(Nc3ncc4c(n3)N(C3CCCC3)[C@H](C3CC3)C(=O)N4C)cc2)CC1 [Example 93],,60 nM
Cc1cc(C(=O)NC2CC3CCC(C2)N3C)ccc1Nc1ncc2c(n1)N(C1CCCCC1)[C@H](C)C(=O)N2C (some centres unmarked) [Example 95],,47 nM
CCC1C(=O)N(C)c2cnc(Nc3ccc(C(=O)NCCN4CCCCC4)cc3OC)nc2N1CCC(C)C (centres unmarked) [Example 148],,87 nM
CCC1C(=O)N(C)c2cnc(Nc3ccc(C(=O)NCCN(CC)CC)cc3OC)nc2N1CCC(C)C (centres unmarked) [Example 149],,85 nM
CCC1C(=O)N(C)c2cnc(Nc3ccc(C(=O)NCCN4CCCCC4)cc3)nc2N1CCC(C)C (centres unmarked) [Example 150],,43 nM
CCC1C(=O)N(C)c2cnc(Nc3ccc(C(=O)NCCCN4CCOCC4)cc3OC)nc2N1CCC(C)C (centres unmarked) [Example 151],,43 nM
CC[C@@H]1C(=O)N(C)c2cnc(Nc3ccc(C(=O)NCCCN4CCOCC4)cc3OC)nc2N1CCC(C)C [Example 152],,81 nM
CC[C@@H]1C(=O)N(C)c2cnc(Nc3ccc(C(=O)NCCCN4CCOCC4)cc3)nc2N1CCC(C)C [Example 154],,97 nM
CC[C@@H]1C(=O)N(C)c2cnc(Nc3ccc(C(=O)NCCCN4CCOCC4)cc3)nc2N1CCC(C)C [Example 155],,79 nM
CC[C@@H]1C(=O)N(C)c2cnc(Nc3ccc(C(=O)NCCCN4CCCC4)cc3OC)nc2N1CCC(C)C [Example 157],,51 nM
CC[C@@H]1C(=O)N(C)c2cnc(Nc3ccc(C(=O)NCCN(C)C)cc3OC)nc2N1CCC(C)C [Example 159],,29 nM
COc1cc(C(=O)NCCN(C(C)C)C(C)C)ccc1Nc1ncc2c(n1)N(CCC(C)C)C(C)(C)C(=O)N2C [Example 161],,81 nM
CCC1C(=O)N(C)c2cnc(Nc3ccc(C(=O)NC4CN5CCC4CC5)cc3OC)nc2N1CCC(C)C (centres unmarked) [Example 163],,71 nM
COc1cc(C(=O)NC(C)(C)CN(C)C)ccc1Nc1ncc2c(n1)N(C1CCCC1)[C@H](C)C(=O)N2C [Example 175],296 nM,
CC[C@@H]1C(=O)N(C)c2cnc(Nc3ccc(C(=O)NC(C)(C)CN(C)C)cc3OC)nc2N1C(C)C [Example 176],301 nM,
CC[C@@H]1C(=O)N(C)c2cnc(Nc3ccc(C(=O)NC(C)(C)CN(C)C)cc3OC)nc2N1C1CCCC1 [Example 177],82 nM,
CCC1C(=O)N(C)c2cnc(Nc3ccc(C(=O)NC4CCN(Cc5ccccc5)CC4)cc3OC)nc2N1C1CCCCC1 (centres unmarked) [Example 180],147 nM,
COc1cc(C(=O)NC2CCN(Cc3ccccc3)CC2)ccc1Nc1ncc2c(n1)N(C1CCOCC1)C(C)C(=O)N2C (centres unmarked) [Example 181],754 nM,

# From patent US7786299B2, “Methods for treating diseases or conditions using dihydropteridinone compounds” (Boehringer Ingelheim Pharma GmbH & Co. KG, priority 2003, dated 2010)
